Results: publication PMC4669708 (Cell Death & Disease, 2015)

How the values were obtained:
Assay in all cases: c-ponatinib pulldown LC-MS/MS
Format in all cases: binding
YWHAH = molecular target: T1, YWHAH (Homo sapiens, UniProt Q04917)
T1 sequence (Q04917 1-246): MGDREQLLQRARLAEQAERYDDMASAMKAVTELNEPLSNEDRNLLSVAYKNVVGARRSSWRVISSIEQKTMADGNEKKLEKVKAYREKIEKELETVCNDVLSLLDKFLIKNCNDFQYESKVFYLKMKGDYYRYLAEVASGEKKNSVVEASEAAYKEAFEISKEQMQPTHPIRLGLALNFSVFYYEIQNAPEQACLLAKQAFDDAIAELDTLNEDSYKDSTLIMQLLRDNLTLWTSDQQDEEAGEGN
Experimental: (§1) Drug-affinity matrices were prepared as described previously.[51] In brief, 25 nmol of c-ponatinib were immobilized on 50 μl NHS-activated Sepharose 4 Fast Flow beads (GE Healthcare Bio-Sciences AB, Uppsala, Sweden). 10 mg whole cell lysate was used as protein input per replicate. Affinity chromatography and elution were performed in duplicate. After elution, the enriched proteins were reduced with dithiothreitol (DTT) and cysteine residues were alkylated by incubation with iodoacetamide. The samples were digested with modified porcine trypsin (Promega). Five percent of the digested eluates were purified and concentrated by C18 reversed-phase material. Subsequently, samples were analyzed in duplicates by gel-free one-dimensional LCMS.
(§2) Precursor and MS/MS peaks were extracted from the RAW files and saved in the MGF format using msconvert tool (ProteoWizard Library v2.1.2708, www.proteowizard.sourceforge.net) for subsequent protein identification. An initial database search was performed with broader mass tolerance and conservative score threshold to re-calibrate the mass lists for optimal final protein identification. For the initial protein database search, Mascot (www.matrixscience.com, v2.3.02) was used. Error tolerances on the precursor and fragment ions were ±10 p.p.m. and ±0.6 Da, respectively, and the database search limited to fully-tryptic peptides with maximum one missed cleavage, carbamidomethyl cysteine and methionine oxidation set as fixed and variable modifications, respectively. The Mascot peptide ion score threshold was set to 30, and at least three peptide identifications per protein were required. Searches were performed against the human UniProtKB/SwissProt database (www.uniprot.org release 2013.01) including all protein isoforms. The initial peptide identifications were used to deduce independent linear transformations for precursor and fragment masses that would minimize the mean square deviation of measured masses from theoretical. Re-calibrated mass list files were searched against the same human protein database by a combination of Mascot and Phenyx (GeneBio SA, Geneva, Switzerland; version 2.5.14) search engines using narrower mass tolerances (±4 p.p.m. and ±0.3 Da). One missed tryptic cleavage site was allowed. Carbamidomethyl cysteine was set as a fixed modification and oxidized methionine was set as a variable modification. To validate the proteins, Mascot and Phenyx output files were processed by internally developed parsers. Proteins with ≥2 unique peptides above a score T1, or with a single peptide above a score T2 were selected as unambiguous identifications. Additional peptides for these validated proteins with score >T3 were also accepted. For Mascot searches, the following thresholds were used: T1=14, T2=40 and T3=10; Phenyx thresholds were set to 4.2, 4.75 and 3.5, respectively (P-value<10^−3). The validated proteins retrieved by the two algorithms were merged, any spectral conflicts discarded and grouped according to shared peptides. A false discovery rate of <1% for protein identifications and <0.1% for peptides (including the ones exported with lower scores) was determined by applying the same procedure against a database of reversed protein sequences. […] In addition to Mascot protein scores that were proposed as an estimate of protein abundance by the original algorithm, the modified version also included Phenyx protein scores and spectral counts. The algorithm first estimated three measure-specific P-values for each putative interaction, and, in contrast to,[69] P-value calculation utilized the quantiles of the measurements rather than the original data. The Fisher's method was used to combine the three resulting P-values into a single P-value for drug–protein interaction specificity. We have also correlated interaction P-values with the magnitude of competition effect represented by the fold reduction of spectral counts on free compound competition. […]

ABL2 = ABL2 (Homo sapiens, UniProt P42684)
ABL2, sequence (P42684 whole entry): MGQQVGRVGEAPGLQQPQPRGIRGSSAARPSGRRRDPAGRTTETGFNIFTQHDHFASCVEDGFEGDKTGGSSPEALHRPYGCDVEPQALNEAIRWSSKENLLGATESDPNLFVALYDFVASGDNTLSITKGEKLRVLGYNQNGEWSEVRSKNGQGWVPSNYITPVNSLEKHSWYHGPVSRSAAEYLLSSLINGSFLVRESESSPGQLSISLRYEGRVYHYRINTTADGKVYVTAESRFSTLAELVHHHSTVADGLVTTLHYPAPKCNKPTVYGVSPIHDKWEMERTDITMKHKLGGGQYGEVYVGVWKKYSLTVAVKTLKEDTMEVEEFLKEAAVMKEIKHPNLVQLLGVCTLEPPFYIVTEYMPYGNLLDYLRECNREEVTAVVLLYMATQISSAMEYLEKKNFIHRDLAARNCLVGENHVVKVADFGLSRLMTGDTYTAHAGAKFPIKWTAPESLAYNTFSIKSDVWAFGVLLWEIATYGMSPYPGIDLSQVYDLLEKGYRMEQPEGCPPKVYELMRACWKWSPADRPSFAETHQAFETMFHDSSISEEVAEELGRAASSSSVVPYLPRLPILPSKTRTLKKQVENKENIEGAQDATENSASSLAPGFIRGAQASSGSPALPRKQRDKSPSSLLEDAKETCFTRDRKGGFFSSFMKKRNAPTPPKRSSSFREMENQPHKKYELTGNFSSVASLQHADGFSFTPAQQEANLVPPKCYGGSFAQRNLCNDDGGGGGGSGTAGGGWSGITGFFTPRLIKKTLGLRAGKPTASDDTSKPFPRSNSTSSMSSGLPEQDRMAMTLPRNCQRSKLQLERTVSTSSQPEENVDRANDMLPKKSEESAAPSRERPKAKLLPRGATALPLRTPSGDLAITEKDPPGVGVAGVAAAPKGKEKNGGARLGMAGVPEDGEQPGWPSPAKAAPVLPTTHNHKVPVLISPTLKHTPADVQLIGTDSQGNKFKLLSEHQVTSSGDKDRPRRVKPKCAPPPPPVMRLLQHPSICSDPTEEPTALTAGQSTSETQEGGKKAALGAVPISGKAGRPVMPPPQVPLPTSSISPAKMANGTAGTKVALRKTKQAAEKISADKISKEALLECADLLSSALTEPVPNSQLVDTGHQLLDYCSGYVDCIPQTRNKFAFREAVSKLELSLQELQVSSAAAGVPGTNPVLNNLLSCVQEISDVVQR
Experimental: as §1, §2

PLEKHF2 = molecular target: T2, PLEKHF2 (Homo sapiens, UniProt Q9H8W4)
T2 sequence (Q9H8W4 1-249): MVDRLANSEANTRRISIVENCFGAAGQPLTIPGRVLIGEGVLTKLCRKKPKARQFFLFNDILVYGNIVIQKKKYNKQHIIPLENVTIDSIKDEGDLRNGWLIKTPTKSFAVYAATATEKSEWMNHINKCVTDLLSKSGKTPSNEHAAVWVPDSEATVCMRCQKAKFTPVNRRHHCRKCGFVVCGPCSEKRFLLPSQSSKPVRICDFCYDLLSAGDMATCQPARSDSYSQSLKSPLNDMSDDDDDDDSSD
Experimental: as §1, §2

HSPA9 = HSPA9 (Homo sapiens, UniProt P38646)
Experimental: as §1, §2

TNIK = TNIK (Homo sapiens, UniProt Q9UKE5)
TNIK, sequence (Q9UKE5 whole entry): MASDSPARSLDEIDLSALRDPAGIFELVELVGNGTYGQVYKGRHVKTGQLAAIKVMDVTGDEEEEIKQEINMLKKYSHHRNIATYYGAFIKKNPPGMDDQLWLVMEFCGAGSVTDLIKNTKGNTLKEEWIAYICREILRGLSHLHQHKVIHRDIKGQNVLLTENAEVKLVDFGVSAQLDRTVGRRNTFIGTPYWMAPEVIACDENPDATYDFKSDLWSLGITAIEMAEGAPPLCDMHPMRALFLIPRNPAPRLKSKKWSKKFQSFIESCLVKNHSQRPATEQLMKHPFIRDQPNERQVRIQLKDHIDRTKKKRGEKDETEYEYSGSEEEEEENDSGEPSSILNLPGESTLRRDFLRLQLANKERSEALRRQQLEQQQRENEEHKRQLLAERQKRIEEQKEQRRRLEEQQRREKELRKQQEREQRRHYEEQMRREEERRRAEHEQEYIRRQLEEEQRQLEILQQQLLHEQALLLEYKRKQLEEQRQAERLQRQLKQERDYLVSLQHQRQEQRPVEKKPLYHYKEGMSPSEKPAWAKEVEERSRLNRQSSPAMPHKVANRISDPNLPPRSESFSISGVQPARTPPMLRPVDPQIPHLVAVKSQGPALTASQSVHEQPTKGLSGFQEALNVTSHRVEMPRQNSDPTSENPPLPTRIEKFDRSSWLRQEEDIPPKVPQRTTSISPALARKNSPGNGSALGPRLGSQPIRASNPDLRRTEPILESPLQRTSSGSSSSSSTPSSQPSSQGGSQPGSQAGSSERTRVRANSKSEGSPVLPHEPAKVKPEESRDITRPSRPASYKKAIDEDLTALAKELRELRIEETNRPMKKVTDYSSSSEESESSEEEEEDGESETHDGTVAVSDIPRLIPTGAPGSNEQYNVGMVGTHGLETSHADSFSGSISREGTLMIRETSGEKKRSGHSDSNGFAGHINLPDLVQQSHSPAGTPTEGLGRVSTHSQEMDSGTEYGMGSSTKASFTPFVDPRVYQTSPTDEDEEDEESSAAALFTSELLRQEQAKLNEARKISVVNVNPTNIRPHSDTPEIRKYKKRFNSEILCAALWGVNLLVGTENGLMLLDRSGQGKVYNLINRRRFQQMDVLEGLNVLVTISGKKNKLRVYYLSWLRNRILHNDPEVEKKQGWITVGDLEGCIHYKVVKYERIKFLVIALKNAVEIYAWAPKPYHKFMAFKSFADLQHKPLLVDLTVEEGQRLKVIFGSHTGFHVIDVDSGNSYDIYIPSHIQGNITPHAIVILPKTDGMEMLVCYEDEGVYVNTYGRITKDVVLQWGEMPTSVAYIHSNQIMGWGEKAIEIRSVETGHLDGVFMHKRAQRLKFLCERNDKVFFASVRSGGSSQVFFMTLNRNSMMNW
Experimental: as §1, §2

MELK = MELK (Homo sapiens, UniProt Q14680)
MELK, sequence (Q14680 whole entry): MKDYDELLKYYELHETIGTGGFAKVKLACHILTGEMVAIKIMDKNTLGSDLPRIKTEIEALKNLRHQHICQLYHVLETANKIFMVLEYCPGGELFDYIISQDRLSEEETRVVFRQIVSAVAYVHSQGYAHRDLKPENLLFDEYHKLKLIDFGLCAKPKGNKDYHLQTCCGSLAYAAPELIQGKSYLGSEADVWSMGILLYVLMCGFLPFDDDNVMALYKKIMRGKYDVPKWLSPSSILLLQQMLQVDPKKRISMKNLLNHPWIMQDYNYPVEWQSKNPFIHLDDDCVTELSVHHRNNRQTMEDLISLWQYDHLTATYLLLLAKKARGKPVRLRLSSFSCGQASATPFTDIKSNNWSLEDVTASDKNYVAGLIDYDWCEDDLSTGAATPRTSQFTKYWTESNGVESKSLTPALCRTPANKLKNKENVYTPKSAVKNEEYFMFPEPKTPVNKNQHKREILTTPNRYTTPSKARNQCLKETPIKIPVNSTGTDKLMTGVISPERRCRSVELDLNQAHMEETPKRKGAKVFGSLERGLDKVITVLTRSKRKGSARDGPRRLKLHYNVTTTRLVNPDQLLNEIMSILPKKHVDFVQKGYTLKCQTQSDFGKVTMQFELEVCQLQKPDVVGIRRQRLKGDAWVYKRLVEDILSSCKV
Experimental: as §1, §2

TYK2 = TYK2 (Homo sapiens, UniProt P29597)
TYK2, sequence (P29597 whole entry): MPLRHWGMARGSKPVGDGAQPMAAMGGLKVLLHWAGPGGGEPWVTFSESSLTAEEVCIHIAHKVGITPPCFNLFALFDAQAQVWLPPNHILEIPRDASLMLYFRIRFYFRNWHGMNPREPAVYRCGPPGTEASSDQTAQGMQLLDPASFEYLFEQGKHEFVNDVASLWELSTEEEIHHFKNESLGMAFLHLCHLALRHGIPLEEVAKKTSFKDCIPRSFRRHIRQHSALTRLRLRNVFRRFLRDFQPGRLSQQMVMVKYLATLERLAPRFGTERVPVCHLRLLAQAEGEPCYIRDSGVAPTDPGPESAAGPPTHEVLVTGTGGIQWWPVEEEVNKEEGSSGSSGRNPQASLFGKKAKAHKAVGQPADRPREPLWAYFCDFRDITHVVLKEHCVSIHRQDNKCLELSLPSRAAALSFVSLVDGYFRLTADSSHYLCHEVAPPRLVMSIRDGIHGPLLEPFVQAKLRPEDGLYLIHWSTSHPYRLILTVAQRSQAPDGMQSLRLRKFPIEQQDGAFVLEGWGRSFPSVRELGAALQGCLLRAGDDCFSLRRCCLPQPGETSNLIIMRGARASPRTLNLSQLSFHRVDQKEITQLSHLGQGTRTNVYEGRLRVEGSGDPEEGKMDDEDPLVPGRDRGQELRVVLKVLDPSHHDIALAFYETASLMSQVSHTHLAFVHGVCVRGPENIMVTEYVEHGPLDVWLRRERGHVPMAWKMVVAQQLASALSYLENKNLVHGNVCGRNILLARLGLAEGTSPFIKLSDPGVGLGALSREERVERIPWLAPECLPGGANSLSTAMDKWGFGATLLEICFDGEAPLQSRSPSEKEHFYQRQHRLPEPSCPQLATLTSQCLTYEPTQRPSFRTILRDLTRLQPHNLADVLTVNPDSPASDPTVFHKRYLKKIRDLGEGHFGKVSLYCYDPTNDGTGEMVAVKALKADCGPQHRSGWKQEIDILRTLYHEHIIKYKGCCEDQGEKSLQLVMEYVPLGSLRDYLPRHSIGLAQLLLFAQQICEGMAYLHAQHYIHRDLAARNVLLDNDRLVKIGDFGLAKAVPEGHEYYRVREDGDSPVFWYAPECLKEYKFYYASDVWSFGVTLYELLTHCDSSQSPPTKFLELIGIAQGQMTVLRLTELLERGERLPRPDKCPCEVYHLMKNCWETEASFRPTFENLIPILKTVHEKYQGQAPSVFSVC
Experimental: as §1, §2

HCK = HCK (Homo sapiens, UniProt P08631)
HCK, sequence (P08631 whole entry): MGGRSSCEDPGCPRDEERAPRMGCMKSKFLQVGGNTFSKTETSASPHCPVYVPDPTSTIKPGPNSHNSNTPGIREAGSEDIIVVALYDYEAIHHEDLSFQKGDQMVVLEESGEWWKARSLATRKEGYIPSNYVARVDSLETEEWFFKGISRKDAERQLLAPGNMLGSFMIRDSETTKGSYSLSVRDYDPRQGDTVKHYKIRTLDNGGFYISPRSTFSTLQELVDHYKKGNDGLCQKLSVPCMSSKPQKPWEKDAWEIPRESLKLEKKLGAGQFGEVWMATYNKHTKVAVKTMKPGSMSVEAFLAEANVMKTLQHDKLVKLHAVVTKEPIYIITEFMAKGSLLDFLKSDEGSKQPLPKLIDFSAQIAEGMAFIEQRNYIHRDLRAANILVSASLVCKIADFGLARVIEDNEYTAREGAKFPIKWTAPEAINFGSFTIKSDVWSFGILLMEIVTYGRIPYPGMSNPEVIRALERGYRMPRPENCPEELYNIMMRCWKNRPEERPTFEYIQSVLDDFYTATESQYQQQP
Experimental: as §1, §2

Cc1ccc(C(=O)Nc2ccc(CN3CCN(CCCN)CC3)c(C(F)(F)F)c2)cc1C#Cc1cnc2cccnn12 [c-ponatinib]
Av. SC comp. (YWHAH; + free ponatinib): 0.25
Total SC comp. (YWHAH; + free ponatinib): 1
Av. SC (YWHAH; no competitor): 6
Total SC (YWHAH; no competitor): 24
Av. SC comp. (ABL2; + free ponatinib): 0
Total SC comp. (ABL2; + free ponatinib): 0
Av. SC (ABL2; no competitor): 17.25
Total SC (ABL2; no competitor): 69
Av. SC comp. (PLEKHF2; + free ponatinib): 0
Total SC comp. (PLEKHF2; + free ponatinib): 0
Av. SC (PLEKHF2; no competitor): 8.25
Total SC (PLEKHF2; no competitor): 33
Av. SC comp. (HSPA9; + free ponatinib): 0
Total SC comp. (HSPA9; + free ponatinib): 0
Av. SC (HSPA9; no competitor): 3.25
Total SC (HSPA9; no competitor): 13
Av. SC comp. (TNIK; + free ponatinib): 0
Total SC comp. (TNIK; + free ponatinib): 0
Av. SC (TNIK; no competitor): 26.75
Total SC (TNIK; no competitor): 107
Av. SC comp. (MELK; + free ponatinib): 1
Total SC comp. (MELK; + free ponatinib): 4
Av. SC (MELK; no competitor): 5
Total SC (MELK; no competitor): 20
Av. SC comp. (TYK2; + free ponatinib): 0
Total SC comp. (TYK2; + free ponatinib): 0
Av. SC (TYK2; no competitor): 14
Total SC (TYK2; no competitor): 56
Av. SC comp. (HCK; + free ponatinib): 0
Total SC comp. (HCK; + free ponatinib): 0
Av. SC (HCK; no competitor): 6
Total SC (HCK; no competitor): 24
